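Following 48 hours of exposure in 96-well plates, responses at five concentrations were used to interpolate endpoints linearly. GI50 marks 50% less growth. TGI: total growth inhibition.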

Among the test systems are DU-145 prostate; KM12 colon; LOX IMVI melanoma; MCF7 breast; NCI/ADR-RES ovarian; OVCAR-3 ovarian; OVCAR-8 ovarian; SW-620 colon; TK-10 renal; UO-31 renal.
What all share (assay): NCI tumour cell line growth inhibition, 48 h

With `O=C1CCCC1C(O)(C(F)(F)Cl)C(F)(F)Cl` (centres undefined), the TGI with DU-145 prostate, in the test on KM12 colon, in the test with LOX IMVI melanoma, in the test with MCF7 breast, in the test on NCI/ADR-RES ovarian and with OVCAR-3 ovarian was more than 10 µM throughout. The TGI with OVCAR-8 ovarian, in the test on SW-620 colon and with TK-10 renal was more than 10 µM each time.
For the compound `Cc1nc2c(ccc3[nH]c4ccccc4c32)s1`, the TGI in the test on DU-145 prostate was more than 100 µM; with KM12 colon it was 56.5 µM; with MCF7 breast, more than 100 µM; with NCI/ADR-RES ovarian, more than 100 µM; in the test with OVCAR-3 ovarian it was 64.1 µM; in the test with OVCAR-8 ovarian, more than 100 µM. In addition, the TGI in the test with SW-620 colon is 45.4 µM; with TK-10 renal it was 78.1 µM; with UO-31 renal, 74.8 µM.
On to `O=C1CSC2(CC(/C=C/c3ccccc3[N+](=O)[O-])=NN2c2cccc(S(=O)(=O)O)c2)N1c1nc2ccccc2s1` (centres undefined), for which the TGI was 27.5 µM in the test with DU-145 prostate; 27 µM with KM12 colon; 34.5 µM in the test with LOX IMVI melanoma; 26.4 µM in the test on MCF7 breast; 50.7 µM in the test with NCI/ADR-RES ovarian; 28.6 µM in the test on OVCAR-8 ovarian. In addition, the results for the TGI in the test with SW-620 colon, with TK-10 renal and with UO-31 renal were more than 75 µM, 29.4 µM and 25.1 µM, respectively.
With `O=C(O)c1cc2sc(C(=O)O)cc2s1`, the TGI in the test on KM12 colon, in the test on LOX IMVI melanoma, in the test on OVCAR-3 ovarian, with SW-620 colon and in the test on TK-10 renal was more than 100 µM throughout.
As to `COC(=O)Cc1c(-c2c(CC(=O)OC)c3ccccc3n2C2OC(COC3OC(COC(C)=O)C(OC(C)=O)C(OC(C)=O)C3OC(C)=O)C(O)C(O)C2O)[nH]c2ccccc12` (centres undefined), the TGI in the test with DU-145 prostate, in the test on LOX IMVI melanoma, in the test on MCF7 breast, in the test on OVCAR-3 ovarian, in the test on SW-620 colon and in the test on TK-10 renal was more than 100 µM in each case. The TGI with UO-31 renal was more than 100 µM.
As for `COc1ccc2oc(=O)c(-c3nc4ccccc4s3)cc2c1`, the TGI was more than 67.5 µM in the test on DU-145 prostate; more than 100 µM in the test on KM12 colon; 49.5 µM with LOX IMVI melanoma; more than 96 µM in the test with NCI/ADR-RES ovarian; 43.7 µM in the test on OVCAR-3 ovarian; 36.9 µM in the test with OVCAR-8 ovarian. For the same compound, the TGI in the test with SW-620 colon was more than 100 µM; with TK-10 renal, more than 100 µM; with UO-31 renal it was more than 41.6 µM.
For the compound `O=[N+]([O-])c1ccc(N/N=C\c2ccc(O)cc2O)nc1`, the GI50 was 1.77 µM in the test with DU-145 prostate; 1.91 µM in the test on KM12 colon; 0.754 µM in the test on LOX IMVI melanoma; 3.4 µM with MCF7 breast; 0.498 µM with NCI/ADR-RES ovarian; 0.398 µM in the test with OVCAR-3 ovarian. Moreover, the GI50 with OVCAR-8 ovarian was 1.52 µM; in the test with SW-620 colon, 2.69 µM; in the test on TK-10 renal, 5.09 µM. The TGI was more than 100 µM in the test with DU-145 prostate; more than 100 µM in the test with KM12 colon; more than 100 µM in the test on LOX IMVI melanoma; more than 100 µM with MCF7 breast; 31.2 µM in the test with NCI/ADR-RES ovarian; 42.1 µM in the test on OVCAR-3 ovarian. For the same compound, the TGI in the test on OVCAR-8 ovarian, in the test on SW-620 colon and with TK-10 renal was more than 100 µM each time.
As to `COC(=O)c1cc(OCc2cc(OCc3ccc(Br)cc3)cc(OCc3ccc(Br)cc3)c2)cc(OCc2cc(OCc3ccc(Br)cc3)cc(OCc3ccc(Br)cc3)c2)c1`, the TGI with DU-145 prostate, in the test with KM12 colon, in the test on MCF7 breast, with NCI/ADR-RES ovarian, with OVCAR-3 ovarian and in the test on TK-10 renal was more than 100 µM each time. In the test with UO-31 renal, this compound registered a TGI of more than 100 µM.
With `C=C(C)[C@H]1C=C[C@@H](OC(C)=O)[C@@]2(COC(C)=O)[C@H](OC(=O)CCC)[C@H]3[C@@H](OC(C)=O)[C@@H](C)C[C@]3(O)C(=O)[C@@](C)(OC(C)=O)[C@H]12`, the TGI in the test on KM12 colon, in the test with LOX IMVI melanoma, in the test on MCF7 breast, in the test on NCI/ADR-RES ovarian, with OVCAR-8 ovarian and with SW-620 colon was more than 100 µM each time. For the same compound, the TGI in the test on TK-10 renal and in the test on UO-31 renal was more than 100 µM in each case.
Turning to `O=Cc1ccc(Oc2c3ccccc3nc3ccccc23)cc1`, the TGI is 13.7 µM in the test on DU-145 prostate; 58.7 µM in the test with KM12 colon; 11.7 µM in the test on LOX IMVI melanoma; 45.4 µM in the test on MCF7 breast; more than 100 µM in the test on NCI/ADR-RES ovarian; 26 µM with OVCAR-3 ovarian. Further, the TGI with OVCAR-8 ovarian was 21 µM; with TK-10 renal, 19.5 µM.
As for `O=c1oc2ccc([N+](=O)[O-])cc2cc1-c1csc(-c2ccccc2)n1`, the TGI in the test on DU-145 prostate, in the test on KM12 colon, in the test on LOX IMVI melanoma, with MCF7 breast, with NCI/ADR-RES ovarian and in the test with OVCAR-8 ovarian was more than 100 µM each time. Besides, the TGI in the test on SW-620 colon, in the test with TK-10 renal and in the test on UO-31 renal was more than 100 µM throughout.
For `COC(=O)CCC(=O)c1ccc2c(c1)CC1(Cc3ccccc3C1)C2`, the TGI in the test on KM12 colon, in the test with LOX IMVI melanoma, in the test on MCF7 breast, in the test with NCI/ADR-RES ovarian, in the test on OVCAR-3 ovarian and with OVCAR-8 ovarian was more than 100 µM in each case. Also, the results for the TGI in the test with TK-10 renal and with UO-31 renal were more than 100 µM and 80.3 µM, respectively.
In the case of `CCCCCCCCC[C@@H]1C[C@H](O)[C@H](Cc2ccccc2)N1C(=O)OC(C)(C)C`, the TGI in the test on KM12 colon was 35.2 µM; in the test on OVCAR-3 ovarian, 34.6 µM; in the test with OVCAR-8 ovarian it was 34.3 µM; in the test with SW-620 colon it was 38.4 µM; with TK-10 renal it was 29.2 µM; in the test on UO-31 renal, 27.4 µM.
`CSc1cc(Cl)c(C)cc1S(=O)(=O)NC(=O)NNc1cnc2ccccc2n1`: the TGI in the test with DU-145 prostate, in the test with KM12 colon, in the test on LOX IMVI melanoma, in the test with MCF7 breast, with NCI/ADR-RES ovarian and in the test with OVCAR-3 ovarian was more than 100 µM each time. The TGI in the test on OVCAR-8 ovarian and with SW-620 colon was more than 100 µM in each case.
As to `CCN(CC)C(=O)CCNC(C)Cc1c[nH]c2ccccc12` (centres undefined), the TGI in the test on DU-145 prostate, in the test with KM12 colon, in the test on LOX IMVI melanoma, in the test on NCI/ADR-RES ovarian, with OVCAR-3 ovarian and in the test with OVCAR-8 ovarian was more than 100 µM throughout. Further, the TGI with SW-620 colon, with TK-10 renal and in the test with UO-31 renal was more than 100 µM throughout.
